We go through nine molecules from patent US20230083015A1, “SMALL MOLECULE DEGRADERS OF STAT3” (THE REGENTS OF THE UNIVERSITY OF MICHIGAN, priority 2019, published 2023).

SMILES strings stand for the structures. Read-outs that look alike come from different tables or passages of the source. Bounds are passed on as bounds.

One experiment addresses STAT3 (Homo sapiens, UniProt P40763). As to the kind of experiment: Estimated DC50 for STAT3 degradation in MOLM-16 cells (immunoblotting). Type of experiment: cell-based. Further details: In vitro cultured cells or xenograft tumors were lysed; endogenous in cells; host or cells: MOLM-16. The protocol: (§1) FIG. 62 is a series of four images showing the fluorescent immunoblotting analysis of STAT1 and STAT3 protein in Molm-16 cells after treatment for 4 h with Cpd. Nos. 331, 296, 361, 362, 363, 364, 365, 366, and 367 at the concentrations indicated.
(§2) In vitro cultured cells or xenograft tumors were lysed 1× Cell Lysis Buffer (Cell Signaling Technology, #9803), resolved by SDS-PAGE NuPAGE gel (Thermo Fisher Scientific), and transferred to a PVDF membrane (Bio Rad). For chemiluminescence immunoblotting, membranes were blocked for 1 h using 5% Blotting-Grade Blocker (#1706404, Bio Rad) in 1× Tris-buffered saline with Tween 20 (TBST, Pierce). Antibodies used were: rabbit mAbs for STAT3 (Cell Signaling Technology, #4368, #12640) and p-STAT3 (Y705) (Cell Signaling Technology, #9245, #52075). HRP conjugated goat anti-rabbit IgG (H+L) (#A27036) secondary antibodies was from Thermo Fisher Scientific. GAPDH (Santa Cruz Technology, sc-47724HRP) and actin (Santa Cruz Technology, sc-8432HRP, sc-47778HRP) were loading controls. For fluorescent immunoblotting, membranes were blocked using Odyssey TBS Blocker Buffer (LI-COR). IRDye 680RD and 800CW Dye-labeled secondary antibodies (LI-COR) were used. The washed membranes were scanned using Odyssey CLx imager (LI-COR). The intensity of Western blot signaling was quantitated using the Odyssey software.
(§3) The estimated DC50 in MOLM-16 cells of representative Compounds of the Disclosure against STAT3 and STAT1 is provide in Table 5.

In a further experiment the target is T1, STAT1 (Homo sapiens, UniProt P42224).
T1 construct: In vitro cultured cells or xenograft tumors were lysed; endogenous in cells; host or cells: MOLM-16
T1 sequence (P42224 1-750): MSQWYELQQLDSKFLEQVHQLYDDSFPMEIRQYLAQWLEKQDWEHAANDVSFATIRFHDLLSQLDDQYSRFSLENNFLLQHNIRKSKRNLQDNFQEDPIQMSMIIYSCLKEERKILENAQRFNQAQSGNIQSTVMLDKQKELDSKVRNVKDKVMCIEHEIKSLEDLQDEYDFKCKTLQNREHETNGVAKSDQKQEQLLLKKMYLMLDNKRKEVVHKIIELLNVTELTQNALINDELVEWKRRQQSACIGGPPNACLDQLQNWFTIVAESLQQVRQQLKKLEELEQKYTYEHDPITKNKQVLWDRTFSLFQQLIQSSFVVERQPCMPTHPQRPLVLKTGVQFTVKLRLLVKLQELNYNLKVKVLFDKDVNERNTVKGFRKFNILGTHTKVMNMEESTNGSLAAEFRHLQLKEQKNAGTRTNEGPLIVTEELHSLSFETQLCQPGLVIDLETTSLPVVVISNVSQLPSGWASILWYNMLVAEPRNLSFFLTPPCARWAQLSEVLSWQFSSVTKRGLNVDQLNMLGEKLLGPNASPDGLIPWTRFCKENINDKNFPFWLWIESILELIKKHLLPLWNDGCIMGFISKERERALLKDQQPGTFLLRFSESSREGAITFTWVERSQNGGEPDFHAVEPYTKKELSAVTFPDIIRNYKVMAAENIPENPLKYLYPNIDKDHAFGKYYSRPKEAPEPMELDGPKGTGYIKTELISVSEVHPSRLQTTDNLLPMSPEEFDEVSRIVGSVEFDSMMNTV
Nature of the experiment: Estimated DC50 for STAT1 degradation in MOLM-16 cells (immunoblotting). Format: cell-based. As for the experimental part:
as §1, §2, §3

Where [1] appears, read: MOLM-16, 4 h; read-out: Estimated DC50 STAT3.
The mark [2] stands for this setting: MOLM-16, 4 h; read-out: Estimated DC50 STAT1.

STAT3, sequence (P40763 whole entry): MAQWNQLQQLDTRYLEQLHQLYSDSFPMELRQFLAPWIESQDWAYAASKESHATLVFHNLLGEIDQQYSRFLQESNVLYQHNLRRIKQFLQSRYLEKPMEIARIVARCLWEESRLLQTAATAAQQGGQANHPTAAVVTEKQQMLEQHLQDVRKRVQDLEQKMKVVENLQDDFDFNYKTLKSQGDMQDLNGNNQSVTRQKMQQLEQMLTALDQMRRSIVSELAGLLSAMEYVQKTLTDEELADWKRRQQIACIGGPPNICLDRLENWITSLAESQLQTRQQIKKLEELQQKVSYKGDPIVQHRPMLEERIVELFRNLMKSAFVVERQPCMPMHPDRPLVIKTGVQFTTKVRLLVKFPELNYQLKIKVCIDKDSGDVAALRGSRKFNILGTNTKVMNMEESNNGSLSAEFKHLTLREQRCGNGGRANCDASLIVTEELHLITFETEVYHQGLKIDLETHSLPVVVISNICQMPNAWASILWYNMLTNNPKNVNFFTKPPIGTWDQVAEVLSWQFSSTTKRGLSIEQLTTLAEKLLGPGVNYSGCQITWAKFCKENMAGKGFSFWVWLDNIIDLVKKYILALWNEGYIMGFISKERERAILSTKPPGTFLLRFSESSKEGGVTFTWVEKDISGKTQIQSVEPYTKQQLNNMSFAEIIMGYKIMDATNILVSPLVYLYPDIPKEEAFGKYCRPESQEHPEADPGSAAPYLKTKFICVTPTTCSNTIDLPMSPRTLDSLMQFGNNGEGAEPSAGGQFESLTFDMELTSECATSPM

For `NC(=O)CC[C@H](NC(=O)[C@@H]1CC[C@@H]2CCN(C(=O)CCCCCC#Cc3cccc4c3CN(C3CCC(=O)NC3=O)C4=O)C[C@H](NC(=O)c3cc4cc(C(F)(F)P(=O)(O)O)ccc4s3)C(=O)N21)C(=O)NC(Cc1ccccc1)Cc1ccccc1` (stereo partly drawn) [Cpd. No. 349, ((2-(((5S,8S,10aR)-8-(((S)-5-amino-1-((1,3-diphenylpropan-2-yl)amino)-1,5-dioxopentan-2-yl)carbamoyl)-3-(8-(2-(2,6-dioxopiperidin-3-yl)-1-oxoisoindolin-4-yl)oct-7-ynoyl)-6-oxodecahydropyrrolo[1,2-a][1,5]diazocin-5-yl)carbamoyl)benzo[b]thiophen-5-yl)difluoromethyl) phosphonic acid], the DC50 – broadly, the concentration at which degradation of the target reaches its halfway point – at STAT3 (setting [1]) was 200 nM.
Regarding `CCN1CC[C@H]2CC[C@@H](C(=O)N[C@@H](CCC(N)=O)C(=O)N[C@@H](Cc3ccc(S(=O)(=O)c4ccccc4)cc3)C(=O)N3CCC(CCC#Cc4cccc5c4CN(C4CCC(=O)NC4=O)C5=O)CC3)N2C(=O)[C@@H](NC(=O)c2cc3cc(C(F)(F)P(=O)(O)O)ccc3s2)C1` (some centres unmarked) [Cpd. No. 352], the half-maximal degradation concentration (DC50) on STAT1 (read-out: Estimated DC50 STAT1; MOLM-16, 4 h) was 250 nM; on STAT3 (read-out: Estimated DC50 STAT3; MOLM-16, 4 h), less than 250 nM.
With `CCN1CC[C@H]2CC[C@@H](C(=O)N[C@@H](CCC(N)=O)C(=O)N[C@@H](Cc3ccc(S(=O)(=O)C4CC4)cc3)C(=O)N3CCC(CCC#Cc4cccc5c4CN(C4CCC(=O)NC4=O)C5=O)CC3)N2C(=O)[C@@H](NC(=O)c2cc3cc(C(F)(F)P(=O)(O)O)ccc3s2)C1` (stereo partly drawn) [Cpd. No. 353, ((2-(((5S,8S,10aR)-8-(((2S)-5-amino-1-(((2S)-3-(4-(cyclopropylsulfonyl)phenyl)-1-(4-(4-(2-(2,6-dioxopiperidin-3-yl)-1-oxoisoindolin-4-yl)but-3-yn-1-yl)piperidin-1-yl)-1-oxopropan-2-yl)amino)-1,5-dioxopentan-2-yl)carbamoyl)-3-ethyl-6-oxodecahydropyrrolo[1,2-a][1,5]diazocin-5-yl)carbamoyl)benzo[b]thiophen-5-yl)difluoromethyl)phosphonic Acid], the 50% degradation concentration (DC50) was 500 nM at STAT1 (setting [2]) and less than 250 nM on STAT3 (setting [1]).
`CCN1CC[C@H]2CC[C@@H](C(=O)N[C@@H](CCC(N)=O)C(=O)N[C@@H](Cc3ccc(NS(=O)(=O)c4ccc(C)cc4)cc3)C(=O)N3CCC(CCC#Cc4cccc5c4CN(C4CCC(=O)NC4=O)C5=O)CC3)N2C(=O)[C@@H](NC(=O)c2cc3cc(C(F)(F)P(=O)(O)O)ccc3s2)C1` (stereo partly drawn) [Cpd. No. 354, ((2-(((5S,8S,10aR)-8-(((2S)-5-amino-1-(((2S)-1-(4-(4-(2-(2,6-dioxopiperidin-3-yl)-1-oxoisoindolin-4-yl)but-3-yn-1-yl)piperidin-1-yl)-3-(4-((4-methylphenyl)sulfonamido)phenyl)-1-oxopropan-2-yl)amino)-1,5-dioxopentan-2-yl)carbamoyl)-3-ethyl-6-oxodecahydropyrrolo[1,2-a][1,5]diazocin-5-yl)carbamoyl)benzo[b]thiophen-5-yl)difluoromethyl)phosphonic Acid]: the 50% degradation concentration (DC50) was 250 nM at STAT1 (setting [2]) and less than 250 nM on STAT3 (setting [1]).
The like results for `CCN1CC[C@H]2CC[C@@H](C(=O)N[C@@H](CCC(N)=O)C(=O)N[C@@H](Cc3ccc(NS(=O)(=O)c4ccc(C5CCCCC5)cc4)cc3)C(=O)N3CCC(CCC#Cc4cccc5c4CN(C4CCC(=O)NC4=O)C5=O)CC3)N2C(=O)[C@@H](NC(=O)c2cc3cc(C(F)(F)P(=O)(O)O)ccc3s2)C1` (stereo partly drawn) [Cpd. No. 357, ((2-(((5S,8S,10aR)-8-(((2S)-5-amino-1-(((2S)-3-(4-((4-cyclohexylphenyl)sulfonamido)phenyl)-1-(4-(4-(2-(2,6-dioxopiperidin-3-yl)-1-oxoisoindolin-4-yl)but-3-yn-1-yl)piperidin-1-yl)-1-oxopropan-2-yl)amino)-1,5-dioxopentan-2-yl)carbamoyl)-3-ethyl-6-oxodecahydropyrrolo[1,2-a][1,5]diazocin-5-yl)carbamoyl)benzo[b]thiophen-5-yl)difluoromethyl) phosphonic acid] were, in that order, greater than 1000 nM and 500 nM.
The corresponding values for `CCN1CC[C@H]2CC[C@@H](C(=O)N[C@@H](CCC(N)=O)C(=O)N[C@@H](Cc3ccc(C(=O)NC4CCOCC4)cc3)C(=O)N3CCC(CCC#Cc4cccc5c4CN(C4CCC(=O)NC4=O)C5=O)CC3)N2C(=O)[C@@H](NC(=O)c2cc3cc(C(F)(F)P(=O)(O)O)ccc3s2)C1` (stereo partly drawn) [Cpd. No. 359, ((2-(((5S,8S,10aR)-8-(((2S)-5-amino-1-(((2S)-1-(4-(4-(2-(2,6-dioxopiperidin-3-yl)-1-oxoisoindolin-4-yl)but-3-yn-1-yl)piperidin-1-yl)-1-oxo-3-(4-((tetrahydro-2H-pyran-4-yl)carbamoyl)phenyl)propan-2-yl)amino)-1,5-dioxopentan-2-yl)carbamoyl)-3-ethyl-6-oxodecahydropyrrolo[1,2-a][1,5]diazocin-5-yl)carbamoyl)benzo[b]thiophen-5-yl)difluoromethyl)phosphonic Acid] are greater than 1000 nM and 1000 nM.
The like results for `CCN1CC[C@H]2CC[C@@H](C(=O)N[C@@H](CCC(N)=O)C(=O)N[C@@H](Cc3ccc(C(=O)NCC4CCN(C)CC4)cc3)C(=O)N3CCC(CCC#Cc4cccc5c4CN(C4CCC(=O)NC4=O)C5=O)CC3)N2C(=O)[C@@H](NC(=O)c2cc3cc(C(F)(F)P(=O)(O)O)ccc3s2)C1` (stereo partly drawn) [Cpd. No. 360, ((2-(((5S,8S,10aR)-8-(((2S)-5-amino-1-(((2S)-1-(4-(4-(2-(2,6-dioxopiperidin-3-yl)-1-oxoisoindolin-4-yl)but-3-yn-1-yl)piperidin-1-yl)-3-(4-(((1-methylpiperidin-4-yl)methyl)carbamoyl)phenyl)-1-oxopropan-2-yl)amino)-1,5-dioxopentan-2-yl)carbamoyl)-3-ethyl-6-oxodecahydropyrrolo [1,2-a][1,5]diazocin-5-yl)carbamoyl)benzo [b]thiophen-5-yl)difluoromethyl) phosphonic acid] were, in that order, greater than 1000 nM and greater than 1000 nM.
For the molecule `COC(=O)N1CC[C@H]2CC[C@@H](C(=O)N[C@@H](CCC(N)=O)C(=O)N[C@@H](Cc3ccc(C(C)(C)C)cc3)C(=O)N3CCC(CCC#Cc4cccc5c4CN(C4CCC(=O)NC4=O)C5=O)CC3)N2C(=O)[C@@H](NC(=O)c2cc3cc(C(F)(F)P(=O)(O)O)ccc3s2)C1` (stereo partly drawn) [Cpd. No. 361, ((2-(((5S,8S,10aR)-8-(((2S)-5-amino-1-(((2S)-3-(4-(tert-butyl)phenyl)-1-(4-(4-(2-(2,6-dioxopiperidin-3-yl)-1-oxoisoindolin-4-yl)but-3-yn-1-yl)piperidin-1-yl)-1-oxopropan-2-yl)amino)-1,5-dioxopentan-2-yl)carbamoyl)-3-(methoxycarbonyl)-6-oxodecahydropyrrolo[1,2-a][1,5]diazocin-5-yl)carbamoyl)benzo[b]thiophen-5-yl)difluoromethyl) phosphonic acid], the DC50 is 250 nM at STAT1 (setting [2]) and less than 250 nM at STAT3 (setting [1]).
The corresponding values for `CC(C)(C)c1ccc(C[C@H](NC(=O)[C@H](CCC(N)=O)NC(=O)[C@@H]2CC[C@@H]3CCN(CC(F)F)C[C@H](NC(=O)c4cc5cc(C(F)(F)P(=O)(O)O)ccc5s4)C(=O)N32)C(=O)N2CCC(CCC#Cc3cccc4c3CN(C3CCC(=O)NC3=O)C4=O)CC2)cc1` (stereo partly drawn) [Cpd. No. 362, ((2-(((5S,8S,10aR)-8-(((2S)-5-amino-1-(((2S)-3-(4-(tert-butyl)phenyl)-1-(4-(4-(2-(2,6-dioxopiperidin-3-yl)-1-oxoisoindolin-4-yl)but-3-yn-1-yl)piperidin-1-yl)-1-oxopropan-2-yl)amino)-1,5-dioxopentan-2-yl)carbamoyl)-3-(2,2-difluoroethyl)-6-oxodecahydropyrrolo[1,2-a][1,5]diazocin-5-yl)carbamoyl)benzo[b]thiophen-5-yl)difluoromethyl) phosphonic acid] are less than 250 nM and less than 250 nM.
